Test results published in PubChem BioAssay AID328 (DTP/NCI, 2004).
“And” between values parts separate entries of the source, which are not always exact repeats. Equal values may be shown once. Toxic doses and inconclusive results are not listed.

Test system: BDF1 mice, P388 leukemia ip, median survival T/C
Assay: NCI In Vivo Anticancer Drug Screen. Data for tumor model P388 Leukemia (intraperitoneal) in B6D2F1 (BDF1) mice
Conditions: endpoint: median survival time, higher = longer survival
Procedure: The antitumor activity of compounds was measured in mice bearing transplantable tumors. Survival or tumor size were measured and the results are expressed as the measurement made in the treated group (T) divided by the measurement made in the vehicle treated control group (C). The tumor model used in this assay is P388 Leukemia (intraperitoneal) in B6D2F1 (BDF1) mice

[1] = dose: 12.5 mg/kg/injection, schedule: Q01DX009 (ip), vehicle: saline with Tween-80
[2] = dose: 6.25 mg/kg/injection, schedule: Q01DX009 (ip), vehicle: saline with Tween-80
[3] = dose: 25.0 mg/kg/injection, schedule: Q01DX009 (ip), vehicle: saline with Tween-80
[4] = dose: 100.0 mg/kg/injection, schedule: Q01DX009 (ip), vehicle: Klucel (hydroxypropylcellulose) (HPC)
[5] = dose: 100.0 mg/kg/injection, schedule: Q04DX003 (ip), vehicle: Klucel (hydroxypropylcellulose) (HPC)
[6] = dose: 200.0 mg/kg/injection, schedule: Q01DX009 (ip), vehicle: Klucel (hydroxypropylcellulose) (HPC)
[7] = dose: 200.0 mg/kg/injection, schedule: Q04DX003 (ip), vehicle: Klucel (hydroxypropylcellulose) (HPC)
[8] = dose: 400.0 mg/kg/injection, schedule: Q01DX009 (ip), vehicle: Klucel (hydroxypropylcellulose) (HPC)
[9] = dose: 400.0 mg/kg/injection, schedule: Q04DX003 (ip), vehicle: Klucel (hydroxypropylcellulose) (HPC)
[10] = dose: 100.0 mg/kg/injection, schedule: Q01DX009 (ip), vehicle: saline with Tween-80
[11] = dose: 50.0 mg/kg/injection, schedule: Q01DX009 (ip), vehicle: saline with Tween-80
[12] = dose: 200.0 mg/kg/injection, schedule: Q01DX009 (ip), vehicle: saline with Tween-80
[13] = dose: 200.0 mg/kg/injection, schedule: Q04DX003 (ip), vehicle: saline with Tween-80
[14] = dose: 400.0 mg/kg/injection, schedule: Q04DX003 (ip), vehicle: saline with Tween-80
[15] = dose: 20.0 mg/kg/injection, schedule: Q01DX009 (ip), vehicle: saline
[16] = dose: 40.0 mg/kg/injection, schedule: Q01DX009 (ip), vehicle: saline
[17] = dose: 80.0 mg/kg/injection, schedule: Q01DX009 (ip), vehicle: saline
[18] = dose: 6.25 mg/kg/injection, schedule: Q01DX009 (ip), vehicle: saline
[19] = dose: 12.5 mg/kg/injection, schedule: Q01DX009 (ip), vehicle: saline
[20] = dose: 100.0 mg/kg/injection, schedule: Q01DX009 (ip), vehicle: other
[21] = dose: 200.0 mg/kg/injection, schedule: Q01DX009 (ip), vehicle: other
[22] = dose: 400.0 mg/kg/injection, schedule: Q01DX009 (ip), vehicle: other

Structure (SMILES): O=[N+]([O-])c1cccc2c[n+](Cc3ccccc3)ccc12
- T/C [1]: 117 % of control

Structure (SMILES): CC1(C)CC(=O)OC(=O)C1
- T/C (dose: 3.13 mg/kg/injection, schedule: Q01DX009 (ip), vehicle: saline with Tween-80): 93 % of control
- T/C [2]: 100 % of control
- T/C [1]: 95 % of control
- T/C [3]: 105 % of control

Structure (SMILES): O=S(=O)(CBr)OCCCl
- T/C (dose: 50.0 mg/kg/injection, schedule: Q01DX005 (ip), vehicle: saline with Tween-80): 120 % of control
- T/C (dose: 100.0 mg/kg/injection, schedule: Q01DX005 (ip), vehicle: saline with Tween-80): 121 % of control
- T/C (dose: 200.0 mg/kg/injection, schedule: Q01DX005 (ip), vehicle: saline with Tween-80): 165 % of control

Structure (SMILES): CCOC(=O)/C=C\c1c(OC)nc2ccccn2c1=O (tested in a mixture with another compound)
- T/C [4]: 116 % of control
- T/C [5]: 122 % of control
- T/C [6]: 121 % of control
- T/C [7]: 109 % of control
- T/C [8]: 111 % of control
- T/C [9]: 113 % of control

Structure (SMILES): c1ccc(C2=C(c3ccccc3)C23SCCS3)cc1
- T/C [4]: 113 % of control
- T/C [5]: 104 % of control
- T/C [6]: 95 % of control
- T/C [7]: 113 % of control
- T/C [8]: 86 % of control
- T/C [9]: 100 % of control

Structure (SMILES): COc1cc2ccc3c(c2cc1OC)CN(Cc1ccccc1)CC3
- T/C [5]: 100 % of control
- T/C [7]: 109 % of control
- T/C [9]: 100 % of control

Structure (SMILES): CC(=O)OCCC(CCOC(C)=O)=C1N=C(c2ccccc2)OC1=O
- T/C [10]: 120 % of control
- T/C (dose: 300.0 mg/kg/injection, schedule: Q01DX009 (ip), vehicle: saline with Tween-80): 118 % of control
- T/C (dose: 400.0 mg/kg/injection, schedule: Q01DX009 (ip), vehicle: saline with Tween-80): 116 % of control

Structure (SMILES): COC(=O)C(Cc1c[nH]c2ccccc12)NC(=O)C(Cc1c[nH]c2ccccc12)NC(=O)OC(C)(C)C (stereo not given)
- T/C (dose: 100.0 mg/kg/injection, schedule: Q01DX001 (ip), vehicle: saline with Tween-80): 90 % of control
- T/C (dose: 200.0 mg/kg/injection, schedule: Q01DX001 (ip), vehicle: saline with Tween-80): 86 % of control
- T/C (dose: 400.0 mg/kg/injection, schedule: Q01DX001 (ip), vehicle: saline with Tween-80): 90 % of control

Structure (SMILES): OC(Cc1cccnc1)(c1ccccc1)c1ccc(Cl)cc1 (stereo not given)
- T/C [11]: 105 % of control
- T/C [10]: 100 % of control
- T/C [12]: 96 % of control

Structure (SMILES): CC(=O)N\C(N)=N/N=C\C(C)=N/N=C(\N)NC(C)=O
- T/C [11]: 97 % of control
- T/C [10]: 100 % of control
- T/C [12]: 100 % of control

Structure (SMILES): c1cc[c]([Sn]([c]2ccccc2)([c]2ccccc2)[n]2cncn2)cc1
- T/C (dose: 3.12 mg/kg/injection, schedule: Q01DX009 (ip), vehicle: saline with Tween-80): 106 % of control
- T/C [2]: 106 % of control

Structure (SMILES): CC(=O)[C@H]1CC[C@H]2[C@@H]3C[C@H](F)C4=CC(=O)CC[C@]4(C)[C@H]3C(=O)C[C@]12C
- T/C [11]: 112 % of control
- T/C [10]: 104 % of control
- T/C [12]: 116 % of control
- T/C [13]: 100 % of control
- T/C [14]: 111 % of control

Structure (SMILES): CCCC1CC[N-]CC1.CCCC1CC[N-]CC1.[Cl][Pt+2]([Cl])([Cl])[Cl]
- T/C (dose: 25.0 mg/kg/injection, schedule: Q04DX003 (ip), vehicle: saline): 122 % of control
- T/C (dose: 33.0 mg/kg/injection, schedule: Q04DX003 (ip), vehicle: saline with Tween-80): 150 % of control
- T/C (dose: 37.5 mg/kg/injection, schedule: Q04DX003 (ip), vehicle: saline with Tween-80): 118 % of control
- T/C [11]: 110 % of control
- T/C (dose: 50.0 mg/kg/injection, schedule: Q04DX003 (ip), vehicle: saline with Tween-80): 160 % of control

Structure (SMILES): CC(=O)Oc1cc2c[n+](C)c3c4cc(OC(C)=O)c(OC(C)=O)cc4ccc3c2cc1OC(C)=O
- T/C [15]: 95 % of control
- T/C [16]: 104 % of control
- T/C [17]: 109 % of control
- T/C (dose: 120.0 mg/kg/injection, schedule: Q01DX009 (ip), vehicle: saline): 118 % of control

Structure (SMILES): CN(C)/N=N/c1[nH]ncc1C(N)=O
- T/C (dose: 50.0 mg/kg/injection, schedule: Q01DX009 (ip), vehicle: Klucel (hydroxypropylcellulose) (HPC)): 95 % of control
- T/C [4]: 104 % of control
- T/C (dose: 100.0 mg/kg/injection, schedule: Q04DX003 (ip), vehicle: alcohol): 118 % of control
- T/C (dose: 200.0 mg/kg/injection, schedule: Q04DX003 (ip), vehicle: alcohol): 113 % of control

Structure (SMILES): CC(=O)OC1C2CCC3C(C)(O)C4CC(O)C(C)(C)C4(O)C(O)CC13CC2(C)O (stereo not given)
- T/C (dose: 12.5 micrograms/kg/injection, schedule: Q01DX009 (ip), vehicle: Klucel (hydroxypropylcellulose) (HPC)): 96 % of control
- T/C (dose: 25.0 micrograms/kg/injection, schedule: Q01DX009 (ip), vehicle: Klucel (hydroxypropylcellulose) (HPC)): 91 % of control
- T/C (dose: 50.0 micrograms/kg/injection, schedule: Q01DX009 (ip), vehicle: Klucel (hydroxypropylcellulose) (HPC)): 87 % of control

Structure (SMILES): CC(C)CC(NC(=O)C(C)N)C(=O)NCC(=O)O (stereo not given)
- T/C (dose: 50.0 mg/kg/injection, schedule: Q01DX005 (ip), vehicle: saline): 100 % of control
- T/C (dose: 100.0 mg/kg/injection, schedule: Q01DX005 (ip), vehicle: saline): 91 % of control
- T/C (dose: 200.0 mg/kg/injection, schedule: Q01DX005 (ip), vehicle: saline): 103 % of control

Structure (SMILES): CCOC(=S)SCC(=O)Nc1ccccc1
- T/C [3]: 93 % of control
- T/C [11]: 90 % of control
- T/C [10]: 103 % of control

Structure (SMILES): CC1CCC2C(C1)N(C(C)C)OC2(C)C (stereo not given)
- T/C (dose: 100.0 mg/kg/injection, schedule: Q04DX003 (ip), vehicle: saline with Tween-80): 109 % of control
- T/C [13]: 100 % of control
- T/C [14]: 90 % of control

Structure (SMILES): CN[C@@H]1[C@H](O)[C@H](NC)[C@H]2O[C@@]3(O)C(=O)C[C@@H](C)O[C@H]3O[C@@H]2[C@H]1O
- T/C [18]: 95 % of control
- T/C [19]: 90 % of control
- T/C (dose: 100.0 mg/kg/injection, schedule: Q01DX009 (ip), vehicle: saline): 99 % of control
- T/C (dose: 200.0 mg/kg/injection, schedule: Q01DX009 (ip), vehicle: saline): 117 % of control
- T/C (dose: 400.0 mg/kg/injection, schedule: Q01DX009 (ip), vehicle: saline): 115 % of control

Structure (SMILES): Cc1ccc(C(=O)CC(O)(C(F)(F)F)C(F)(F)F)cc1
- T/C [20]: 100 % of control
- T/C [21]: 95 % of control
- T/C [22]: 121 % of control

Structure (SMILES): CCCCCCCCCCCC[N+](C)(C)CCC[N+](C)(C)CCCCCCCCCCCC
- T/C [18]: 109 % of control
- T/C [19]: 116 % of control

Structure (SMILES): O=C(CO)c1ccccc1
- T/C [2]: 93 % of control
- T/C [1]: 95 % of control
- T/C [3]: 93 % of control
- T/C [11]: 104 % of control

Structure (SMILES): O=C(CC(O)(C(F)(F)F)C(F)(F)F)c1ccc([N+](=O)[O-])cc1
- T/C [20]: 95 % of control
- T/C (dose: 100.0 mg/kg/injection, schedule: Q04DX003 (ip), vehicle: other): 110 % of control
- T/C [21]: 95 % of control
- T/C (dose: 200.0 mg/kg/injection, schedule: Q04DX003 (ip), vehicle: other): 95 % of control
- T/C [22]: 100 % of control
- T/C (dose: 400.0 mg/kg/injection, schedule: Q04DX003 (ip), vehicle: other): 100 % of control

Structure (SMILES): C=Cn1ccnc1C(O)(c1ccc(Cl)cc1)c1ccc(Cl)cc1
- T/C [10]: 116 % of control

Structure (SMILES): O=Cc1nc2ccccc2[nH]1
- T/C [1]: 108 % of control
- T/C [3]: 101 % of control
- T/C [11]: 103 % of control
- T/C [10]: 111 % of control

Structure (SMILES): COc1cc2c[n+](C)c3c4cc5c(cc4ccc3c2cc1OC)OCO5 (tested in a mixture with another compound)
- T/C (dose: 1.25 mg/kg/injection, schedule: Q01DX009 (ip), vehicle: water): 124 % of control
- T/C (dose: 10.0 mg/kg/injection, schedule: Q01DX009 (ip), vehicle: saline): 163 % of control and 166 % of control
- T/C (dose: 10.0 mg/kg/injection, schedule: Q01DX009 (ip), vehicle: water): 160 % of control
- T/C [15]: 172 % of control and 188 % of control and 203 % of control
- T/C (dose: 20.0 mg/kg/injection, schedule: Q01DX009 (ip), vehicle: water): 150 % of control
- T/C [16]: 174 % of control and 215 % of control
- T/C (dose: 40.0 mg/kg/injection, schedule: Q01DX009 (ip), vehicle: water): 110 % of control
- T/C [17]: 172 % of control and 188 % of control
